Source: paper PMC4589238, “Acute Biphasic Effects of Ayahuasca” (PLoS ONE, 2015)
Where two headings read alike, the source gives them in different places.

Experiments:
[1] = Plasma concentrations of ayahuasca compounds and metabolites after oral ayahuasca (LC/MS/MS); format: in vivo, human; details: for Cmax: po
Excerpt: A sample of six liters of "Hoasca" was donated by the União do Vegetal (UDV) church in Brazil for the specific purpose of use in this study. Quantification of the main compounds in the brew was done with liquid chromatography-electrospray ionization-tandem mass spectrometry (LC/MS/MS). The screening included the following compounds: DMT, DMT‐N‐oxide (DMT-NO), N‐methyltryptamine (NMT), indoleacetic acid (IAA), 5‐hydroxy‐DMT (5-OH-DMT, or bufotenin), 5‐methoxy‐DMT (5-MeO-DMT), Harmine, Harmol, Harmaline, Harmalol, THH, 7‐hydroxy‐tetrahydroharmine (THH-OH), and 2‐methyl‐tetrahydro‐beta‐carboline (2-MTHBC). The original liquid volume was then reduced to 50% using a rotary evaporator to decrease the amount of liquid intake.
Blood was collected in sterile EDTA containing tubes. Ten blood samples (3 mL each) were collected every 25 minutes, starting 25 minutes before ayahuasca ingestion and ending 200 minutes after ingestion (in a total of ten samples for each individual). Blood was collected by a professional nurse, with a catheter that remained in place during the entire time of the study. Each tube was carefully and slowly turned upside-down three times and then stored at 0°C until all ten samples were collected. Blood samples were then centrifuged at 2000 rpm for 10 min at 4°C and the resulting plasma immediately collected and frozen at -80°C. The frozen plasma samples were stored at -80°C until shipped on dry ice to USA for analysis according to [31]. Compounds included in this screening were DMT, DMT-NO, NMT, IAA, 5-OH-DMT (bufotenin), 5-MeO-DMT, Harmine, Harmol, Harmaline, Harmalol, THH, THH-OH and 2-MTHBC.
Two volunteers opted out of blood collection, and data from one volunteer was discarded due to high hemolysis in the blood samples. Therefore data were available from 16 volunteers. Maximum plasma Concentration (Cmax), Time for maximum plasma concentration (Tmax) and area under the curve (AUC) of ten identified compounds are summarized in Table 2. […] No significant differences were found between men and women for any of the identified compounds in blood. […] There were no significant correlations between time to vomit and Cmax or AUC.

healthy volunteers = assay: Association between plasma concentration and EEG spectral changes (generalized linear models); format: in vivo, human
Experimental: Relationships between plasma concentration of identified compounds and spectral changes in the six frequency bands evaluated were calculated by fitting generalized linear models (glmfit function in MATLAB) for each compound and frequency band. This analysis was followed by the non-parametric cluster based correction with 5000 permutations.
Results were considered statistically significant when p <0.05. Effect sizes are also reported, using Partial eta squared (partial η^2) for the main frequency clusters and Cohen’s d for the generalized linear models.

MAO-A = test system: MAO-A; design: method as in PMID 19879939; details: cited from earlier work
human subjects = details: cited from earlier work
rats = test system: rats; design: method as in PMID 9649961; details: cited from earlier work

SMILES: COc1ccc2c3c([nH]c2c1)C(C)=NCC3 [Harmaline]
- Cmax ([1]; both sexes, human, in vivo, plasma, 16 volunteers, oral ayahuasca, sampling to 200 min, read-out: Cmax (mean ± sd)): 14.7 ± 13.9 ng/mL
- Cmax ([1]; both sexes, human, in vivo, plasma, 16 volunteers, oral ayahuasca, read-out: Cmax (min—max)): 1.56 to 44.4 ng/mL
- Tmax ([1]; both sexes, human, in vivo, plasma, 16 volunteers, oral ayahuasca, read-out: Tmax (mean ± sd) (converted)): 2.68 h
- Time to reach plateau of plasma level in the group average ([1]; from ayahuasca ingestion, group average curve): 100 min
- AUC (min—max) ([1]; plasma, 16 volunteers, oral ayahuasca): 6.16 to 199.78 g·min/mL
- Clusters between plasma concentration and EEG spectra (healthy volunteers; delta, theta and beta frequency bands): did not show any significant clusters
- Cohen's d, plasma concentration vs alpha band power decrease (healthy volunteers; left centro-parieto-occipito-frontal electrodes): 0.0285
- Cohen's d, plasma concentration vs slow-gamma power increase (healthy volunteers; left fronto-temporo-centro-parieto-occipital electrodes also extending to right temporo-parietal electrodes): 0.0885
- Cohen's d, plasma concentration vs fast-gamma power increase (healthy volunteers; one large widespread bilateral cluster): 0.0032
- Cohen's d, plasma concentration vs alpha band power decrease (healthy volunteers; right central electrodes (C2, C4, CP4 and CP6)): 0.2944
- Cohen's d, plasma concentration vs slow-gamma power increase (healthy volunteers; right frontal electrodes): 0.0401
- Potency at inhibiting MAO-A relative to MAO-B (MAO-A): 10,000 fold
- Dose necessary for psychoactivity (human subjects; oral or i.v. administration): 4 mg/kg
- Orally psychoactive dose (human subjects; oral): 300 to 400 mg
- Substitution in drug discrimination (rats): substitute the psychedelic DOM
